Source: the NIST ThermoML archive (doi:10.1021/je4009415)

Test: xn = mol fraction of the nth substance listed
Conditions: Liquid, Vibrating tube method

CCOC(=O)CC [ethyl propanoate] + CCCCCCCCC
Conditions	mass density [kg/m3]
288.15 K, x1 = 0.0545	727.07
288.15 K, x1 = 0.1159	733.36
288.15 K, x1 = 0.1434	736.52
288.15 K, x1 = 0.2218	745.49
288.15 K, x1 = 0.2412	747.88
288.15 K, x1 = 0.3158	757.46
288.15 K, x1 = 0.3579	763.17
288.15 K, x1 = 0.4121	770.89
288.15 K, x1 = 0.462	778.51
288.15 K, x1 = 0.5039	785.25
288.15 K, x1 = 0.5537	793.58
288.15 K, x1 = 0.6035	802.47
288.15 K, x1 = 0.6328	807.91
288.15 K, x1 = 0.6935	819.81
288.15 K, x1 = 0.7463	830.79
288.15 K, x1 = 0.7907	840.69
288.15 K, x1 = 0.895	866.09
288.15 K, x1 = 0.9488	880.62
288.15 K, x1 = 1	895.58
298.15 K, x1 = 0.0538	718.94
298.15 K, x1 = 0.0883	722.45
298.15 K, x1 = 0.142	728.05
298.15 K, x1 = 0.2152	736.31
298.15 K, x1 = 0.3007	746.83
298.15 K, x1 = 0.3555	754.11
298.15 K, x1 = 0.4078	761.4
298.15 K, x1 = 0.4592	769.02
298.15 K, x1 = 0.4988	775.19
298.15 K, x1 = 0.5511	783.72
298.15 K, x1 = 0.5917	790.84
298.15 K, x1 = 0.6562	802.56
298.15 K, x1 = 0.6962	810.32
298.15 K, x1 = 0.741	819.48
298.15 K, x1 = 0.7883	829.57
298.15 K, x1 = 0.8559	845.47
298.15 K, x1 = 0.9034	857.27
298.15 K, x1 = 0.9521	870.29
298.15 K, x1 = 1	884.15
308.15 K, x1 = 0.0558	711.17
308.15 K, x1 = 0.089	714.43
308.15 K, x1 = 0.1555	721.34
308.15 K, x1 = 0.2171	728.16
308.15 K, x1 = 0.2586	733.03
308.15 K, x1 = 0.3081	739.12
308.15 K, x1 = 0.3829	748.94
308.15 K, x1 = 0.4013	751.5
308.15 K, x1 = 0.4533	759.02
308.15 K, x1 = 0.5068	767.11
308.15 K, x1 = 0.5509	774.2
308.15 K, x1 = 0.6035	783.03
308.15 K, x1 = 0.6525	791.81
308.15 K, x1 = 0.6998	800.82
308.15 K, x1 = 0.7473	810.39
308.15 K, x1 = 0.794	820.41
308.15 K, x1 = 0.8533	833.93
308.15 K, x1 = 0.9006	845.51
308.15 K, x1 = 0.9506	858.66
308.15 K, x1 = 1	872.62
318.15 K, x1 = 0.0516	702.64
318.15 K, x1 = 0.0909	706.6
318.15 K, x1 = 0.1617	713.7
318.15 K, x1 = 0.219	719.88
318.15 K, x1 = 0.2413	722.49
318.15 K, x1 = 0.2923	728.44
318.15 K, x1 = 0.3518	735.96
318.15 K, x1 = 0.4062	743.15
318.15 K, x1 = 0.4541	749.92
318.15 K, x1 = 0.5056	757.57
318.15 K, x1 = 0.556	765.57
318.15 K, x1 = 0.6001	772.83
318.15 K, x1 = 0.6514	781.78
318.15 K, x1 = 0.6939	789.72
318.15 K, x1 = 0.7552	801.69
318.15 K, x1 = 0.7988	810.87
318.15 K, x1 = 0.8559	823.94
318.15 K, x1 = 0.9062	835.91
318.15 K, x1 = 0.9524	847.95
318.15 K, x1 = 1	861.08
328.15 K, x1 = 0.0514	694.83
328.15 K, x1 = 0.0965	699.04
328.15 K, x1 = 0.1572	705.05
328.15 K, x1 = 0.2061	710.14
328.15 K, x1 = 0.2627	716.42
328.15 K, x1 = 0.3163	722.76
328.15 K, x1 = 0.3619	728.36
328.15 K, x1 = 0.4059	734.14
328.15 K, x1 = 0.4602	741.6
328.15 K, x1 = 0.5053	748.09
328.15 K, x1 = 0.5543	755.65
328.15 K, x1 = 0.6024	763.42
328.15 K, x1 = 0.6525	772.01
328.15 K, x1 = 0.6996	780.61
328.15 K, x1 = 0.7535	791.02
328.15 K, x1 = 0.8019	801
328.15 K, x1 = 0.8606	813.96
328.15 K, x1 = 0.8933	821.83
328.15 K, x1 = 0.9504	836
328.15 K, x1 = 1	849.41
